Source: ChEMBL document CHEMBL5370688, “Development of HC-258, a Covalent Acrylamide TEAD Inhibitor That Reduces Gene Expression and Cell Migration” (ACS Med Chem Lett, 2023)
Calls of active or inactive are those of the source. No cut-off for these calls is given here.

Columns and labels:
[1] = target: Transcriptional enhancer factor TEF-3 (Homo sapiens) (UniProt Q15561); experiment: Binding affinity to TEAD4 (unknown origin) assessed as change in aggregation temperature at 25 uM by DSLS thermal shift assay
Sequence of Transcriptional enhancer factor TEF-3 (Homo sapiens) (Q15561 whole entry): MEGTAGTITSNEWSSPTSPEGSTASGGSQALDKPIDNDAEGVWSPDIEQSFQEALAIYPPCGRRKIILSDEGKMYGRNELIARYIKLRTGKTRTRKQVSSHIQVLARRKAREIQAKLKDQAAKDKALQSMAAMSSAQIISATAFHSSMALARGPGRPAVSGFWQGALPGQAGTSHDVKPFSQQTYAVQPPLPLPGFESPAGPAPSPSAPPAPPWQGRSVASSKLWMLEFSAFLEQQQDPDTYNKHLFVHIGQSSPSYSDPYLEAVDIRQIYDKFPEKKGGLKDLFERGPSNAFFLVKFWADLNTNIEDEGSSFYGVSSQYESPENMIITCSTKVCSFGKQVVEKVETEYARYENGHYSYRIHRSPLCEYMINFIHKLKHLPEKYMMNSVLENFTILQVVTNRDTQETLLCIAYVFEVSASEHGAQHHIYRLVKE

[2] = test system: MDA-MB-231; experiment: Inhibition of TEAD in human MDA-MB-231 cells assessed as reduction in CTGF gene expression level at 10 uM measured after 48 hrs by SYBR green staining based RT-qPCR analysis; type: cell-based
[3] = target: Transcriptional enhancer factor TEF-3 (Homo sapiens) (UniProt Q15561); experiment: Binding affinity to TEAD4 (unknown origin) assessed as covalent adduct formation at 0.3 mM incubated for 2 hrs by Agilent LC/MSD Time-of-Flight Mass Spectrometric analysis
[4] = target: Transcriptional enhancer factor TEF-3 (Homo sapiens) (UniProt Q15561); experiment: Displacement of bodipy-PA from TEAD4 (unknown origin) measured after 30 mins by FP assay
[5] = test system: MDA-MB-231; experiment: Inhibition of TEAD in human MDA-MB-231 cells assessed as reduction in AXL gene expression level at 10 uM measured after 48 hrs by SYBR green staining based RT-qPCR analysis; type: cell-based
[6] = test system: MDA-MB-231; experiment: Inhibition of TEAD in human MDA-MB-231 cells assessed as reduction in Cyr61 gene expression level at 10 uM measured after 48 hrs by SYBR green staining based RT-qPCR analysis; type: cell-based
[7] = test system: MDA-MB-231; experiment: Inhibition of TEAD in human MDA-MB-231 cells assessed as reduction in NF2 gene expression level at 10 uM measured after 48 hrs by SYBR green staining based RT-qPCR analysis; type: cell-based
[8] = test system: MDA-MB-231; experiment: Cytotoxicity against human MDA-MB-231 cells at 10 uM; type: functional, cell-based
[9] = test system: MDA-MB-231; experiment: Inhibition of cell migration in human MDA-MB-231 cells at 10 uM incubated for 48 hrs by xCELLigence RTCA system analysis; type: functional, cell-based
[10] = test system: YAP1-TEAD1 (Homo sapiens); experiment: Inhibition of C-terminal NanoLuc-tagged TEAD1 (unknown origin)/C-terminal Halo-Tagged YAP1 (unknown origin) protein-protein interaction transfected in HEK293T cells at 10 uM using Nano-Glo as substrate pre incubated for 4 hrs followed by substrate addition and measured within 10 mins by NanoBRET …; conditions: time 250.0 min
[11] = target: Transcriptional enhancer factor TEF-3 (Homo sapiens) (UniProt Q15561); experiment: Displacement of bodipy-PA from TEAD4 (unknown origin) measured after 30 mins by FP assay relative to control
[12] = target: Transcriptional enhancer factor TEF-3 (Homo sapiens) (UniProt Q15561); experiment: Binding affinity to TEAD4 (unknown origin) assessed as partial covalent adduct formation at 0.3 mM incubated for 2 hrs by Agilent LC/MSD Time-of-Flight Mass Spectrometric analysis

SMILES	deltaT [1]	inhibition [2]	Activity [3]	K [4]	inhibition [5]	inhibition [6]	inhibition [7]	Activity [8]	inhibition [9]	inhibition [10]	inhibition [11]	Activity [12]
CCCCCOc1cccc(Nc2cccc(NC(C)=O)c2)c1	2.5 °C	inactive	inactive	> 25 µM	inactive	inactive	inactive	inactive	inactive	inactive	–	–
O=C(O)c1ccccc1Nc1cccc(C(F)(F)F)c1	–	–	–	–	–	–	–	–	inactive	–	–	–
CCCCCCc1cccc(Nc2ccccc2NC(=O)C=C(C)C)c1	–	–	inactive	–	–	–	–	–	–	–	–	–
CCCCCCc1cccc(Nc2cccc(NC(=O)C3CC3)c2)c1	–	–	inactive	–	–	–	–	–	–	–	–	–
C=CC(=O)Nc1cccc(Nc2cccc(CCCCCC)c2)c1	–	Active	Active	1.3 µM	Active	Active	Active	Active	–	–	–	–
CCCCCCc1cccc(Nc2ccccc2NC(=O)CCl)c1	–	–	Active	2.3 µM	–	–	–	–	–	–	80%	–
CCCCCCc1cccc(Nc2cccc(NC(=O)CCl)c2)c1	–	Active	Active	1 µM	inactive	Active	inactive	inactive	–	–	–	–
CCCCCCc1cccc(Nc2cccc(NC(=O)C=C(C)C)c2)c1	–	–	inactive	–	–	–	–	–	–	–	–	–
CCCCCOc1cccc(Nc2cccc(NC(=O)CCl)c2)c1	–	–	Active	3.1 µM	–	–	–	inactive	–	–	–	–
C=CC(=O)Nc1ccccc1Nc1cccc(OCCCCC)c1	–	Active	–	> 20 µM	Active	Active	Active	inactive	Active	–	–	Active
C=CC(=O)Nc1cccc(Nc2cccc(OCCCCC)c2)c1	–	Active	Active	3.6 µM	Active	Active	Active	inactive	Active	inactive	–	–
C=CC(=O)Nc1ccccc1Nc1cccc(CCCCCC)c1	–	Active	–	2.7 µM	Active	Active	Active	Active	–	–	–	Active
